The structures appear in SMILES notation.

The data set can be described thus: Ames test / genotoxicity of degradation product. It counts as cell-based.

`C=C[C@@H]1C[C@]1(N)C(=O)O` [Compound X]: the Ames result is “Ames positive” and the genotoxicity entry is “genotoxic”.

(Values after US20140037719A1, “STABILIZED PHARMACEUTICAL FORMULATIONS OF A POTENT HCV INHIBITOR” (Robert Majeska, priority 2012, published 2014).)
